Results from patent US6737383B1, “Herbicidal oxadiazolidines” (priority 1999, dated 2004).

What was measured:
bedstraw = experiment: Test B pre/postemergence bedstraw; assay type: in vivo, Galium aparine
Procedure, shortened: (§1)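 Test chemicals in a non-phytotoxic solvent mixture with surfactant were sprayed preemergence onto planted seeds and postemergence onto plants 2 to 18 cm tall (1- to 4-leaf stage). After twelve to sixteen days in a greenhouse, injury was visually rated against untreated controls from 0 (no effect) to 10 (complete control).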

blackgrass = experiment: Test B pre/postemergence blackgrass; assay type: in vivo, Alopecurus myosuroides
Procedure, shortened: as §1

surinam grass = experiment: Test B pre/postemergence surinam grass; assay type: in vivo, Brachiaria decumbens
Procedure, shortened: as §1

corn = experiment: Test B pre/postemergence corn; assay type: in vivo, Zea mays
Procedure, shortened: as §1

crabgrass = experiment: Test B pre/postemergence crabgrass; assay type: in vivo, Digitaria sanguinalis
Procedure, shortened: as §1

giant foxtail = experiment: Test B pre/postemergence giant foxtail; assay type: in vivo, Setaria faberii
Procedure, shortened: as §1

morningglory = experiment: Test B pre/postemergence morningglory; assay type: in vivo, Ipomoea hederacea
Procedure, shortened: as §1

pigweed = experiment: Test B pre/postemergence pigweed; assay type: in vivo, Amaranthus retroflexus
Procedure, shortened: as §1

rape = experiment: Test B pre/postemergence rape; assay type: in vivo, Brassica napus
Procedure, shortened: as §1

soybean = experiment: Test B pre/postemergence soybean; assay type: in vivo, Glycine max
Procedure, shortened: as §1

velvetleaf = experiment: Test B pre/postemergence velvetleaf; assay type: in vivo, Abutilon theophrasti
Procedure, shortened: as §1

wheat = experiment: Test B pre/postemergence wheat; assay type: in vivo, Triticum aestivum
Procedure, shortened: as §1

wild oat = experiment: Test B pre/postemergence wild oat; assay type: in vivo, Avena fatua
Procedure, shortened: as §1

purple nutsedge = experiment: Test B pre/postemergence purple nutsedge; assay type: in vivo, Cyperus rotundus
Procedure, shortened: as §1

rice = experiment: Test B flood test rice; assay type: in vivo, Oryza sativa
Procedure, shortened: (§2)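 Each value is a visual injury score relative to controls, with 10 meaning complete control and 0 no effect. Evaluation took place twelve to sixteen days after the 2-leaf-stage plants were treated and kept in the greenhouse.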

duck salad = experiment: Test B flood test duck salad; assay type: in vivo, Heteranthera limosa
Procedure, shortened: as §2

[1] = Postemergence, Rate 62 g/ha, scale 0 to 10, 0 is no effect, 10 is complete control
[2] = Postemergence, Rate 250 g/ha, scale 0 to 10, 0 no effect, 10 complete control
[3] = Preemergence, Rate 62 g/ha, scale 0 to 10 (0 no effect, 10 complete control)
[4] = Preemergence, Rate 125 g/ha, scale 0 to 10 (0 no effect, 10 complete control)
[5] = Preemergence, Rate 250 g/ha, scale of 0 to 10 where 0 is no effect and 10 is complete control
[6] = Preemergence, Rate 500 g/ha, scale 0 (no effect) to 10 (complete control)
[7] = Rate 125 g/ha, Postemergence, scale 0 to 10, 0 no effect, 10 complete control
[8] = Rate 500 g/ha, Postemergence, scale 0 to 10, 0 no effect, 10 complete control
[9] = Rate 125 g/ha, Postemergence section (flood test species), scale 0 to 10, 0 no effect, 10 complete control
[10] = Rate 250 g/ha, headed Pre-emergence (flood test species), scale 0 to 10 (0 no effect, 10 complete control)
[11] = Rate 500 g/ha, headed Pre-emergence (flood test species), scale 0 to 10 (0 no effect, 10 complete control)
[12] = Rate 500 g/ha, listed under Postemergence (flood test species), scale 0 to 10, 0 no effect, 10 complete control
[13] = Rate 1000 g/ha, Pre-emergence (as headed), scale 0 to 10
[14] = Rate 2000 g/ha, Pre-emergence (as headed), scale 0 to 10
[15] = flood test, listed under Postemergence, Rate 250 g/ha, scale 0 to 10, 0 no effect, 10 complete control

CC(C)N(C(=O)n1oc(=O)n(Cc2ccccc2)c1=O)c1ccc(F)cc1 [Compound 78]
Bedstraw plant response rating (bedstraw; [1]): 0 | Bedstraw plant response rating (bedstraw; [2]): 4 | Bedstraw plant response rating (bedstraw; [3]): 0 | Plant response rating, Bedstraw (bedstraw; [4]): 0 | Plant response rating, Bedstraw (bedstraw; [5]): 0 | Bedstraw plant response rating (bedstraw; [6]): 0 | Bedstraw plant response rating (bedstraw; [7]): 0 | Bedstraw plant response rating (bedstraw; [8]): 8 | Blackgrass plant response rating (blackgrass; [1]): 0 | Blackgrass plant response rating (blackgrass; [2]): 3 | Blackgrass plant response rating (blackgrass; [3]): 2 | Plant response rating, Blackgrass (blackgrass; [4]): 4 | Plant response rating, Blackgrass (blackgrass; [5]): 4 | Blackgrass plant response rating (blackgrass; [6]): 6 | Blackgrass plant response rating (blackgrass; [7]): 3 | Blackgrass plant response rating (blackgrass; [8]): 7 | B. signalgrass plant response rating (surinam grass; [1]): 0 | B. signalgrass plant response rating (surinam grass; [2]): 4 | B. signalgrass plant response rating (surinam grass; [3]): 0 | Plant response rating, B. signalgrass (surinam grass; [4]): 1 | Plant response rating, B. signalgrass (surinam grass; [5]): 5 | B. signalgrass plant response rating (surinam grass; [6]): 9 | B. signalgrass plant response rating (surinam grass; [7]): 0 | B. signalgrass plant response rating (surinam grass; Rate 500 g/ha, Postemergence, scale of 0 to 10 where 0 is no effect and 10 is complete control): 6 | Corn plant response rating (corn; [1]): 0 | Corn plant response rating (corn; [2]): 0 | Corn plant response rating (corn; [3]): 0 | Plant response rating, Corn (corn; [4]): 0 | Plant response rating, Corn (corn; [5]): 0 | Corn plant response rating (corn; [6]): 0 | Corn plant response rating (corn; [7]): 0 | Corn plant response rating (corn; [8]): 0 | Crabgrass plant response rating (crabgrass; [1]): 0 | Crabgrass plant response rating (crabgrass; [2]): 5 | Crabgrass plant response rating (crabgrass; [3]): 7 | Plant response rating, Crabgrass (crabgrass; [4]): 9 | Plant response rating, Crabgrass (crabgrass; [5]): 9 | Crabgrass plant response rating (crabgrass; [6]): 10 | Crabgrass plant response rating (crabgrass; [7]): 2 | Crabgrass plant response rating (crabgrass; [8]): 9 | Giant foxtail plant response rating (giant foxtail; [1]): 0 | Giant foxtail plant response rating (giant foxtail; [2]): 3 | Giant foxtail plant response rating (giant foxtail; [3]): 8 | Plant response rating, Giant foxtail (giant foxtail; [4]): 8 | Plant response rating, Giant foxtail (giant foxtail; [5]): 9 | Giant foxtail plant response rating (giant foxtail; [6]): 9 | Giant foxtail plant response rating (giant foxtail; [7]): 3 | Giant foxtail plant response rating (giant foxtail; [8]): 4 | Morningglory plant response rating (morningglory; [1]): 7 | Morningglory plant response rating (morningglory; [2]): 10 | Morningglory plant response rating (morningglory; [3]): 0 | Plant response rating, Morningglory (morningglory; [4]): 0 | Plant response rating, Morningglory (morningglory; [5]): 0 | Morningglory plant response rating (morningglory; [6]): 0 | Morningglory plant response rating (morningglory; [7]): 8 | Morningglory plant response rating (morningglory; [8]): 10 | Redroot pigweed plant response rating (pigweed; [1]): 2 | Redroot pigweed plant response rating (pigweed; [2]): 3 | Redroot pigweed plant response rating (pigweed; [3]): 0 | Plant response rating, Redroot pigweed (pigweed; [4]): 0 | Plant response rating, Redroot pigweed (pigweed; [5]): 6 | Redroot pigweed plant response rating (pigweed; [6]): 6 | Redroot pigweed plant response rating (pigweed; [7]): 3 | Redroot pigweed plant response rating (pigweed; [8]): 6 | Rape plant response rating (rape; [1]): 0 | Rape plant response rating (rape; [2]): 2 | Rape plant response rating (rape; [3]): 0 | Plant response rating, Rape (rape; [4]): 0 | Plant response rating, Rape (rape; [5]): 5 | Rape plant response rating (rape; [6]): 5 | Rape plant response rating (rape; [7]): 0 | Rape plant response rating (rape; [8]): 4 | Soybean plant response rating (soybean; [1]): 1 | Soybean plant response rating (soybean; [2]): 2 | Soybean plant response rating (soybean; [3]): 0 | Plant response rating, Soybean (soybean; [4]): 0 | Plant response rating, Soybean (soybean; [5]): 0 | Soybean plant response rating (soybean; [6]): 0 | Soybean plant response rating (soybean; [7]): 1 | Soybean plant response rating (soybean; [8]): 4 | Velvetleaf plant response rating (velvetleaf; [1]): 2 | Velvetleaf plant response rating (velvetleaf; [2]): 3 | Velvetleaf plant response rating (velvetleaf; [3]): 0 | Plant response rating, Velvetleaf (velvetleaf; [4]): 0 | Plant response rating, Velvetleaf (velvetleaf; [5]): 2 | Velvetleaf plant response rating (velvetleaf; [6]): 7 | Velvetleaf plant response rating (velvetleaf; [7]): 2 | Velvetleaf plant response rating (velvetleaf; [8]): 4 | Wheat plant response rating (wheat; [1]): 0 | Wheat plant response rating (wheat; [2]): 0 | Wheat plant response rating (wheat; [3]): 0 | Plant response rating, Wheat (wheat; [4]): 0 | Plant response rating, Wheat (wheat; [5]): 3 | Wheat plant response rating (wheat; [6]): 3 | Wheat plant response rating (wheat; [7]): 0 | Wheat plant response rating (wheat; [8]): 0 | Wild oats plant response rating (wild oat; [1]): 0 | Wild oats plant response rating (wild oat; [2]): 0 | Wild oats plant response rating (wild oat; [3]): 0 | Plant response rating, Wild oats (wild oat; [4]): 2 | Plant response rating, Wild oats (wild oat; [5]): 6 | Wild oats plant response rating (wild oat; [6]): 6 | Wild oats plant response rating (wild oat; [7]): 0 | Wild oats plant response rating (wild oat; [8]): 2 | Nutsedge plant response rating (purple nutsedge; [1]): 0 | Nutsedge plant response rating (purple nutsedge; [2]): 0 | Nutsedge plant response rating (purple nutsedge; [3]): 0 | Plant response rating, Nutsedge (purple nutsedge; [4]): 0 | Plant response rating, Nutsedge (purple nutsedge; [5]): 0 | Nutsedge plant response rating (purple nutsedge; [6]): 0 | Nutsedge plant response rating (purple nutsedge; [7]): 0 | Nutsedge plant response rating (purple nutsedge; [8]): 0 | Rice plant response rating (rice; [1]): 0 | Rice plant response rating (rice; [9]): 0 | Rice plant response rating (rice; [10]): 0 | Plant response rating, Rice (rice; [11]): 0 | Rice plant response rating (rice; [12]): 2 | Rice plant response rating (rice; [13]): 0 | Rice plant response rating (rice; [14]): 0 | Rice plant response rating (rice; [15]): 0 | Ducksalad plant response rating (duck salad; [1]): 0 | Ducksalad plant response rating (duck salad; [9]): 0 | Ducksalad plant response rating (duck salad; [10]): 0 | Plant response rating, Ducksalad (duck salad; [11]): 0 | Ducksalad plant response rating (duck salad; [12]): 0 | Ducksalad plant response rating (duck salad; [13]): 0 | Ducksalad plant response rating (duck salad; [14]): 0 | Ducksalad plant response rating (duck salad; [15]): 0
